Test results taken from ChEMBL document CHEMBL1151548 (1995).

tested on: Mus musculus; assay: Antimalarial activity against Plasmodium berghei K173 in mice (Mus musculus) by peroral administration using peanut oil; format: functional

SMILES	SD50 [mg/kg/day]	SD90 [mg/kg/day]
C[C@@H]1CC[C@H]2[C@@H](C)C(Nc3ccc(Cl)cc3)O[C@@H]3O[C@@]4(C)CC[C@@H]1[C@]32OO4 (stereo partly specified)	1.77	4.5
C[C@@H]1CC[C@H]2[C@@H](C)C(Nc3cccc(Cl)c3)O[C@@H]3O[C@@]4(C)CC[C@@H]1[C@]32OO4 (stereo partly specified)	1.62	4.8
COc1ccc(NC2O[C@@H]3O[C@@]4(C)CC[C@H]5[C@H](C)CC[C@@H]([C@H]2C)[C@@]35OO4)cc1 (stereo partly specified)	3.5	11.23
C[C@@H]1CC[C@H]2[C@@H](C)C(Nc3ccc(C(=O)O)cc3)O[C@@H]3O[C@@]4(C)CC[C@@H]1[C@]32OO4 (stereo partly specified)	1.36	6.88
C[C@@H]1CC[C@H]2[C@@H](C)C(Nc3cccc(C(=O)O)c3)O[C@@H]3O[C@@]4(C)CC[C@@H]1[C@]32OO4 (stereo partly specified)	2.76	8.23
C[C@@H]1CC[C@H]2[C@@H](C)C(Nc3ccccc3)O[C@@H]3O[C@@]4(C)CC[C@@H]1[C@]32OO4 (stereo partly specified)	2.63	7.3
C[C@@H]1CC[C@H]2[C@@H](C)C(Nc3ccc(Br)cc3)O[C@@H]3O[C@@]4(C)CC[C@@H]1[C@]32OO4 (stereo partly specified)	2.7	9.1
C[C@@H]1CC[C@H]2[C@@H](C)C(=O)O[C@@H]3O[C@@]4(C)CC[C@@H]1[C@]32OO4 [ARTEMISININ]	5.13	–
Cc1ccc(NC2O[C@@H]3O[C@@]4(C)CC[C@H]5[C@H](C)CC[C@@H]([C@H]2C)[C@@]35OO4)cc1 (stereo partly specified)	2.77	6.08
C[C@@H]1CC[C@H]2[C@@H](C)C(Nc3cccc(Br)c3)O[C@@H]3O[C@@]4(C)CC[C@@H]1[C@]32OO4 (stereo partly specified)	3.4	5.38
C[C@@H]1CC[C@H]2[C@@H](C)C(Nc3ccc(I)cc3)O[C@@H]3O[C@@]4(C)CC[C@@H]1[C@]32OO4 (stereo partly specified)	4.56	11.03
